Assay results taken from patent US11981658B2, “Substituted aminopyridine compounds as EGFR inhibitors” (YUHAN CORPORATION, priority 2021, dated 2024).
Like-named read-outs stand apart in the source and are kept apart here.

Key:
EGFR wildtype (WT) = EGFR wildtype (WT) (Homo sapiens, UniProt P00533); assay: Biochemical EGFR kinase inhibition assay (Lance Ultra TR-FRET), wildtype
Procedure, shortened: (§1)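 Enzyme reactions lasted 1 hour at room temperature with test compounds between 0.003 and 10 μM, followed by 10 mM EDTA quench.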

EGFR Del19/T790M/C797S = EGFR Del19/T790M/C797S (Homo sapiens, UniProt P00533, C797S/DEL746-750/T790M); assay: Biochemical EGFR kinase inhibition assay (Lance Ultra TR-FRET), triple mutant del19/T790M/C797S
Procedure, shortened: as §1

EGFR L858R/C797S = EGFR L858R/C797S (Homo sapiens, UniProt P00533, C797S/L858R); assay: Biochemical EGFR kinase inhibition assay (Lance Ultra TR-FRET), double mutant L858R/C797S
Description: Biochemical EGFR kinase assays were conducted using Lance Ultra time-resolved fluorescence resonance energy transfer (TR-FRET) technology from Perkin-Elmer. Compounds of the invention were initially diluted to 20 mM in 100% DMSO for storage and made into kinase buffer solution to create a compound concentration ranging from 0.003 μM and 10 μM.
Each kinase reactions were incubated at room temperature for 1 hour and then stopped by the addition of 4 μL of stop solution (10 mM EDTA). The specific Europium-labeled-anti-phosphopeptide antibody (PerkinElmer, AD0069) diluted in LANCE detection buffer was then added to a final concentration of 2 nM. After 60 minutes incubation at room temperature the LANCE signal was measured on an EnVision Multilabel Reader (Perkin-Elmer). Excitation wavelength was set at 320 nm and emission monitored at 615 nm (donor) and 665 nm (acceptor). The IC50 values were determined using GraphPad prism software (GraphPad Software, Inc., San Diego, CA, USA).

EGFR Del19/C797S = EGFR Del19/C797S (Homo sapiens, UniProt P00533, C797S/DEL746-750); assay: Biochemical EGFR kinase inhibition assay (Lance Ultra TR-FRET), double mutant del19/C797S
Procedure, shortened: as §1

EGFR L858R/T790M/C797S = EGFR L858R/T790M/C797S (Homo sapiens, UniProt P00533, C797S/L858R/T790M); assay: Biochemical EGFR kinase inhibition assay (Lance Ultra TR-FRET), triple mutant L858R/T790M/C797S
Procedure, shortened: as §1

[1] = Km ATP, read-out: IC50 WT (nM) Km ATP
[2] = IC50 Del19/T790M/C797S (nM), 100 μM ATP
[3] = Km ATP, read-out: IC50 Del19/T790M/C797S (nM) Km ATP
[4] = IC50 L858R/C797S (nM), 100 μM ATP
[5] = Km ATP, read-out: IC50 L858R/C797S (nM) Km ATP
[6] = IC50 Del19/C797S (nM), 100 μM ATP
[7] = IC50 L858R/T790M/C797S (nM), 100 μM ATP

Sequence of EGFR Del19/C797S (P00533 with tags, fused parts or gaps DEL746-750/C797S): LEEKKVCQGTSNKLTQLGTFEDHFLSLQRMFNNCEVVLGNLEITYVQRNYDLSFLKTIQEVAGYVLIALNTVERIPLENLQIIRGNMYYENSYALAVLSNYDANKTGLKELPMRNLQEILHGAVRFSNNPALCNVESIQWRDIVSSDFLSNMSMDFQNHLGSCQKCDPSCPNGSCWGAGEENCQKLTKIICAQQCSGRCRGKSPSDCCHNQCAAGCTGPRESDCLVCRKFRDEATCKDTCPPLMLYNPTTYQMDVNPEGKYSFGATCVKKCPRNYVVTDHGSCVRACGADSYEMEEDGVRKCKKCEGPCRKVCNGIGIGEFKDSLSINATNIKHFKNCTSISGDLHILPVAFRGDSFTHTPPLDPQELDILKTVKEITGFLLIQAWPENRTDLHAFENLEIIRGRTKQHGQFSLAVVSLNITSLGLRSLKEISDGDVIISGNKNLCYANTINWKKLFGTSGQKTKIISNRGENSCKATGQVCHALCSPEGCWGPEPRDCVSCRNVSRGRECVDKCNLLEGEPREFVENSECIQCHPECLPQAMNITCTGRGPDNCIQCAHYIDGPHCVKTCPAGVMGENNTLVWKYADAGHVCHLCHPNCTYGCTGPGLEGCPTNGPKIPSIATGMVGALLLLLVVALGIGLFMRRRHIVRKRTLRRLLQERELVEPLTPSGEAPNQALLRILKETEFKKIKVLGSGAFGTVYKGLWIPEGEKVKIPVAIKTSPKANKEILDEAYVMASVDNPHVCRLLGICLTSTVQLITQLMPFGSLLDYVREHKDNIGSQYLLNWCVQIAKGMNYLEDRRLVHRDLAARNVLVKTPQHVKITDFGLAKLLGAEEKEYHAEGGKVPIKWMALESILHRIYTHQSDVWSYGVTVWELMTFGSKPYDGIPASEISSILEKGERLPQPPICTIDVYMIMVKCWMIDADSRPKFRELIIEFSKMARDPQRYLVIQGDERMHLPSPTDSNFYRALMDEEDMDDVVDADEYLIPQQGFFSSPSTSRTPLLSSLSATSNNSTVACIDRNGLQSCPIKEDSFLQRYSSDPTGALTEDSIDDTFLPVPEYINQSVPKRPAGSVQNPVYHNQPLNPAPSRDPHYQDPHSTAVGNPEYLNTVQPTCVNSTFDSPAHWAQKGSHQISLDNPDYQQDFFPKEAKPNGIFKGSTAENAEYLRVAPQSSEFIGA
Sequence of EGFR L858R/T790M/C797S (P00533 25-1210 T790M/C797S/L858R): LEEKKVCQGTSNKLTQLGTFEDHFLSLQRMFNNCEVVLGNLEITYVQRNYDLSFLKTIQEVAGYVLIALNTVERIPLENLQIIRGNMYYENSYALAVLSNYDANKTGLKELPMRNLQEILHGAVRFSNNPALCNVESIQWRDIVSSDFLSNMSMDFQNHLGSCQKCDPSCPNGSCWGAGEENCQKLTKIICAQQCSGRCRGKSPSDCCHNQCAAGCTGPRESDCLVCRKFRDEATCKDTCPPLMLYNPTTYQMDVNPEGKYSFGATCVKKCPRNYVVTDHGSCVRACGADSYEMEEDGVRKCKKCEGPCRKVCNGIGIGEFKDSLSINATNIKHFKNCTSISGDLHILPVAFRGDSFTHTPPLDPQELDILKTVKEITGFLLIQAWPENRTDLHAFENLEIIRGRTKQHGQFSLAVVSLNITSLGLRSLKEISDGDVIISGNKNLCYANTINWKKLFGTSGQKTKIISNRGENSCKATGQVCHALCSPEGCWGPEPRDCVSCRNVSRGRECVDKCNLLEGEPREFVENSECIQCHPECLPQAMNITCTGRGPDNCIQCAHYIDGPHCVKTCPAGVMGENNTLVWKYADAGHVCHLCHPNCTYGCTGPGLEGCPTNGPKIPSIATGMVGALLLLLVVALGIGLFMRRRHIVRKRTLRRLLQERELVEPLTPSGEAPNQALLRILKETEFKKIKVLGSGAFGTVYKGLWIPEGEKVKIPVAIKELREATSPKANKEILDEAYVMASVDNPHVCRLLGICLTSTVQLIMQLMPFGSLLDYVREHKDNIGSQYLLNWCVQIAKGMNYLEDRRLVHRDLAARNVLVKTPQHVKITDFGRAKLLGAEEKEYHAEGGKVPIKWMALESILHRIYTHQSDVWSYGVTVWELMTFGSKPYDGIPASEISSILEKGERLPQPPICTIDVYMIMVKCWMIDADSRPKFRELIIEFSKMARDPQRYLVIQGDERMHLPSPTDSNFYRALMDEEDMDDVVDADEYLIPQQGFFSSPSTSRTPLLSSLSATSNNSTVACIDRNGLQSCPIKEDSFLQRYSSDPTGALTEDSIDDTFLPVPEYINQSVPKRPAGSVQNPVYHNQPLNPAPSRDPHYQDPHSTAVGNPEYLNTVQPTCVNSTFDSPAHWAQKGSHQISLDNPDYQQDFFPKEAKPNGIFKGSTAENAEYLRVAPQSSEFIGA
Sequence of EGFR L858R/C797S (P00533 25-1210 C797S/L858R): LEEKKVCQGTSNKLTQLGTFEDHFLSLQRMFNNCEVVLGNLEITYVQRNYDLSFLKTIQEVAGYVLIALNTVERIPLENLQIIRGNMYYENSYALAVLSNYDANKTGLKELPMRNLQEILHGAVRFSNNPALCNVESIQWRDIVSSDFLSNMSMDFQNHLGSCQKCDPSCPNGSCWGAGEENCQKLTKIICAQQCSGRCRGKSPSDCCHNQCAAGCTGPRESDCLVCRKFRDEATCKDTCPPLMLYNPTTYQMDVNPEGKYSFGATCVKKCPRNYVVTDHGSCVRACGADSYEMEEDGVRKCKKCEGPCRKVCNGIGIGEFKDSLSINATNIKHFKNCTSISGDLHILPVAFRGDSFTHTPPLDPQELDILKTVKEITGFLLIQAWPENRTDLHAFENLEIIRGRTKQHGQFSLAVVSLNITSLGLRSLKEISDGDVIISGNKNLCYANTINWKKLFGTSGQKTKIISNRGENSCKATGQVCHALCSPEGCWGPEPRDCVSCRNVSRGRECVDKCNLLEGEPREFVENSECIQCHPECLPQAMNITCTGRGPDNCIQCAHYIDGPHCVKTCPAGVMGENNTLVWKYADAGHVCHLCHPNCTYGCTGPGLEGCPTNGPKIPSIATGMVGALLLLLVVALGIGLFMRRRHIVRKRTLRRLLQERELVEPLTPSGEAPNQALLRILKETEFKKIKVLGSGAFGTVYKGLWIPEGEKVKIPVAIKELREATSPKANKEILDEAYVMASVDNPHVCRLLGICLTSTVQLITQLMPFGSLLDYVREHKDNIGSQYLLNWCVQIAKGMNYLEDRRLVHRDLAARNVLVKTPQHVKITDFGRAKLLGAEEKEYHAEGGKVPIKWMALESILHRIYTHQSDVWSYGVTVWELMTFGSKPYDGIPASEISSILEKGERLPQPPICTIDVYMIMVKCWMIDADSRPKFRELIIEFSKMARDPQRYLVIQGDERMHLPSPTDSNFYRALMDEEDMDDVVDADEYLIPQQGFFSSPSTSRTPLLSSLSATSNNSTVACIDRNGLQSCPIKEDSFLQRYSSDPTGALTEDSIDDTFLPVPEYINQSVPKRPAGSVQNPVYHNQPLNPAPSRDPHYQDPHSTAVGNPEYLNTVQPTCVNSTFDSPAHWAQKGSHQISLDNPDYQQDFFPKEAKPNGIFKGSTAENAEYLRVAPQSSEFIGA
Sequence of EGFR Del19/T790M/C797S (P00533 with tags, fused parts or gaps DEL746-750/T790M/C797S): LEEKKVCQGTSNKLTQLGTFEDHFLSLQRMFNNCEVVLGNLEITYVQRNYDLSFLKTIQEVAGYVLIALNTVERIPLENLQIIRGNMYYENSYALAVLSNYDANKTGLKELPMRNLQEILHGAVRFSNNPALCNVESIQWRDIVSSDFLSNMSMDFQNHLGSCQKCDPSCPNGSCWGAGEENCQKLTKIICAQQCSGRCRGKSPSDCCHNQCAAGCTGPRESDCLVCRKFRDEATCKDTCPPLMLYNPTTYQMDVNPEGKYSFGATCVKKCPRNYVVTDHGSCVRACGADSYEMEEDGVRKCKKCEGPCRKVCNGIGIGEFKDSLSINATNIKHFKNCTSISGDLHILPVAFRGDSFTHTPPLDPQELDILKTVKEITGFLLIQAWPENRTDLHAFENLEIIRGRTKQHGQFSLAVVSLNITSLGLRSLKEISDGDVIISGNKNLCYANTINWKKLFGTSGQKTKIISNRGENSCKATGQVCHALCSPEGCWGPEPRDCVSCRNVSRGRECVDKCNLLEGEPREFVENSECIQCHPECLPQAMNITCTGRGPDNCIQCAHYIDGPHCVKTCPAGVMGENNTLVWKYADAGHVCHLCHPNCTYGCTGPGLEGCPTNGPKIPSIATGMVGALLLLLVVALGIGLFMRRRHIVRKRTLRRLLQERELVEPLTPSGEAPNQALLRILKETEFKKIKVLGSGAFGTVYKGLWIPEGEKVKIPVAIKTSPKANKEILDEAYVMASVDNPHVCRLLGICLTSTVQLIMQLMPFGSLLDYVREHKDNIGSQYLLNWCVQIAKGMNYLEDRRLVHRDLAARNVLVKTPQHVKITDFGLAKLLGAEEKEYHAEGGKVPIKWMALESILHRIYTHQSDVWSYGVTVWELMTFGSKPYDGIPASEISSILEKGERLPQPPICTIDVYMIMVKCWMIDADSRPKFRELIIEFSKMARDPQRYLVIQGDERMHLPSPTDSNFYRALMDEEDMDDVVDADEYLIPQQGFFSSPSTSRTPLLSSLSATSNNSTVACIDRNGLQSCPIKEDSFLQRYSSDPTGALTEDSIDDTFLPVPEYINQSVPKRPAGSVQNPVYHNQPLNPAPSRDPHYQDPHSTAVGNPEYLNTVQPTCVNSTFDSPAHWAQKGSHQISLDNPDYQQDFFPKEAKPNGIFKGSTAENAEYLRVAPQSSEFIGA

Structure (SMILES)	IC50 (EGFR wildtype (WT); IC50 WT (nM), 100 μM ATP) [nM]	IC50 (EGFR wildtype (WT); [1]) [nM]	IC50 (EGFR Del19/T790M/C797S; [2]) [nM]	IC50 (EGFR Del19/T790M/C797S; [3]) [nM]	IC50 (EGFR L858R/C797S; [4]) [nM]	IC50 (EGFR L858R/C797S; [5]) [nM]	IC50 (EGFR Del19/C797S; [6]) [nM]	IC50 (EGFR L858R/T790M/C797S; [7]) [nM]	IC50 (EGFR Del19/C797S; Km ATP, read-out: IC50 Del19/C797S (nM) Km ATP) [nM]	IC50 (EGFR L858R/T790M/C797S; Km ATP, read-out: IC50 L858R/T790M/C797S (nM) Km ATP) [nM]
O=S(=O)(C1CC1)n1cc(-c2nccc(Nc3cc(N4CC[C@@H](O)C4)c(C#Cc4cnn(CCF)c4)cn3)n2)cn1 [Example 32, (R)-1-(2-((2-(1-(Cyclopropylsulfonyl)-1H-pyrazol-4-yl)pyrimidin-4-yl)amino)-5-((1-(2-fluoroethyl)-1H-pyrazol-4-yl)ethynyl)pyridin-4-yl)pyrrolidin-3-ol]	> 10000	29.4	1.1	1.5	96.9	12	11.8	4.8	–	–
Cn1cc(C#Cc2cnc(Nc3ccnc(-c4cnn(S(=O)(=O)C5CC5)c4)n3)cc2N2CCC(CO)C2)cn1 (centres unmarked) [Example 33, (1-(2-((2-(1-(Cyclopropylsulfonyl)-1H-pyrazol-4-yl)pyrimidin-4-yl)amino)-5-((1-methyl-1H-pyrazol-4-yl)ethynyl)pyridin-4-yl)pyrrolidin-3-yl)methanol]	> 10000	–	1.9	–	152	–	10.2	3.7	–	–
O=S(=O)(C1CC1)n1cc(-c2nccc(Nc3cc(N4CCC(CO)C4)c(C#Cc4cnn(CCF)c4)cn3)n2)cn1 (centres unmarked) [Example 34, (1-(2-((2-(1-(Cyclopropylsulfonyl)-1H-pyrazol-4-yl)pyrimidin-4-yl)amino)-5-((1-(2-fluoroethyl)-1H-pyrazol-4-yl)ethynyl)pyridin-4-yl)pyrrolidin-3-yl)methanol]	> 10000	27.9	1.8	2.1	236	–	11.5	6.8	–	–
Cn1cc(C#Cc2cnc(Nc3ccnc(-c4cnn(S(=O)(=O)C5CC5)c4)n3)cc2N2CC(C(C)(C)O)C2)cn1 [Example 35, 2-(1-(2-((2-(1-(Cyclopropylsulfonyl)-1H-pyrazol-4-yl)pyrimidin-4-yl)amino)-5-((1-methyl-1H-pyrazol-4-yl)ethynyl)pyridin-4-yl)azetidin-3-yl)propan-2-ol]	> 10000	99.6	1.9	0.9	53	34.2	27.3	2.4	28	2.4
CC(C)(O)C1CN(c2cc(Nc3ccnc(-c4cnn(S(=O)(=O)C5CC5)c4)n3)ncc2C#Cc2cnn(CCF)c2)C1 [Example 36, 2-(1-(2-((2-(1-(Cyclopropylsulfonyl)-1H-pyrazol-4-yl)pyrimidin-4-yl)amino)-5-((1-(2-fluoroethyl)-1H-pyrazol-4-yl)ethynyl)pyridin-4-yl)azetidin-3-yl)propan-2-ol]	> 10000	–	2.1	–	100	–	25.5	3	–	–
Cn1cc(C#Cc2cnc(Nc3ccnc(-c4cnn(S(=O)(=O)C5CC5)c4)n3)cc2NCC(C)(C)CO)cn1 [Example 39, 3-((2-((2-(1-Cyclopropylsulfonylpyrazol-4-yl)pyrimidin-4-yl)amino)-5-(2-(1-methylpyrazol-4-yl)ethynyl)-4-pyridyl)amino)-2,2-dimethyl-propan-1-ol]	> 10000	–	2.6	–	203	32.3	53.6	8.8	–	–
